# Patent US8802661B2, “C-28 amides of modified C-3 betulinic acid derivatives as HIV maturation inhibitors” (priority 2010, dated 2014)
# Where a name gives a salt, the structure may show the parent alone.
# Test system: recombinant NL4-3 virus (Renilla luciferase in nef, Gag P373S)
# Assay: HIV Cell Culture Assay (luciferase reporter virus in MT-2 cells)
# Assay type: cell-based
# Conditions: NL43
# Procedure, shortened: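 MT-2 cells infected 4–5 days with NL4-3 carrying Renilla luciferase in nef and Gag P373S, with serial dilutions of inhibitor present. Antiviral activity quantified by luciferase activity, using Dual Luciferase reagents premixed with lysis buffer and read immediately.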
row,Structure (SMILES),EC50 [µM]
1,"C=C(C)[C@@H]1CC[C@]2(C(=O)NCCN3CCS(=O)(=O)CC3)CC[C@]3(C)[C@H](CC[C@@H]4[C@@]5(C)CC=C(c6ccc(B(O)O)cc6)C(C)(C)[C@@H]5CC[C@]43C)[C@@H]12 [Example 130, (4-((1R,3aS,5aR,5bR,7aR,11aS,11bR,13aR,13bR)-3a-((2-(1,1-dioxidothiomorpholino)ethyl)carbamoyl)-5a,5b,8,8,11a-pentamethyl-1-(prop-1-en-2-yl)-2,3,3a,4,5,5a,5b,6,7,7a,8,11,11a,11b,12,13,13a,13b-octadecahydro-1H-cyclopenta[a]chrysen-9-yl)phenyl)boronic acid, TFA]",0.0134
2,"C=C(C)[C@@H]1CC[C@]2(C(=O)N(C)CCc3ccccn3)CC[C@]3(C)[C@H](CC[C@@H]4[C@@]5(C)CC=C(c6ccc(C(=O)O)cc6)C(C)(C)[C@@H]5CC[C@]43C)[C@@H]12 [Example 24, 4-((1R,3aS,5aR,5bR,7aR,11aS,11bR,13aR,13bR)-5a,5b,8,8,11a-pentamethyl-3a-(methyl(2-(pyridin-2-yl)ethyl)carbamoyl)-1-(prop-1-en-2-yl)-2,3,3a,4,5,5a,5b,6,7,7a,8,11,11a,11b,12,13,13a,13b-octadecahydro-1H-cyclopenta[a]chrysen-9-yl)benzoic acid]",0.048
3,"C=C(C)[C@@H]1CC[C@]2(C(=O)NCCS(=O)(=O)O)CC[C@]3(C)[C@H](CC[C@@H]4[C@@]5(C)CC=C(c6ccc(C(=O)O)cc6)C(C)(C)[C@@H]5CC[C@]43C)[C@@H]12 [Example 82, sodium 4-((1R,3aS,5aR,5bR,7aR,11aS,11bR,13aR,13bR)-5a,5b,8,8,11a-pentamethyl-1-(prop-1-en-2-yl)-3a-(2-sulfonatoethylcarbamoyl)-2,3,3a,4,5,5a,5b,6,7,7a,8,11,11a,11b,12,13,13a,13b-octadecahydro-1H-cyclopenta[a]chrysen-9-yl)benzoate]",1.23
4,"C=C(C)[C@@H]1CC[C@]2(C(=O)NCCNc3ccc(C(=O)O)cc3)CC[C@]3(C)[C@H](CC[C@@H]4[C@@]5(C)CC=C(c6ccc(C(=O)O)cc6)C(C)(C)[C@@H]5CC[C@]43C)[C@@H]12 [Example 114, 4-(2-((1R,3aS,5aR,5bR,7aR,11aS,11bR,13aR,13bR)-9-(4-carboxyphenyl)-5a,5b,8,8,11a-pentamethyl-1-(prop-1-en-2-yl)-2,3,3a,4,5,5a,5b,6,7,7a,8,11,11a,11b,12,13,13a,13b-octadecahydro-1H-cyclopenta[a]chrysene-3a-carboxamido)ethylamino)benzoic acid]",0.0176

# Same assay, conditions: NL43, read-out: EC50 Group
row,Structure (SMILES),EC50 [µM]
1,"C=C(C)[C@@H]1CC[C@]2(C(=O)NCCN3CCC(F)(F)CC3)CC[C@]3(C)[C@H](CC[C@@H]4[C@@]5(C)CC=C(c6ccc(C(=O)O)c(F)c6)C(C)(C)[C@@H]5CC[C@]43C)[C@@H]12 [Example 117, 4-((1R,3aS,5aR,5bR,7aR,11aS,11bR,13aR,13bR)-3a-(2-(4,4-difluoropiperidin-1-yl)ethylcarbamoyl)-5a,5b,8,8,11a-pentamethyl-1-(prop-1-en-2-yl)-2,3,3a,4,5,5a,5b,6,7,7a,8,11,11a,11b,12,13,13a,13b-octadecahydro-1H-cyclopenta[a]chrysen-9-yl)-2-fluorobenzoic acid]",< 0.1
2,"C=C(C)[C@@H]1CC[C@]2(C(=O)NCCN(C)C)CC[C@]3(C)[C@H](CC[C@@H]4[C@@]5(C)CC=C(c6ccc(C(=O)O)c(C(=O)O)c6)C(C)(C)[C@@H]5CC[C@]43C)[C@@H]12 [Example 113, 4-((1R,3aS,5aR,5bR,7aR,11aS,11bR,13aR,13bR)-3a-(2-(dimethylamino)ethylcarbamoyl)-5a,5b,8,8,11a-pentamethyl-1-(prop-1-en-2-yl)-2,3,3a,4,5,5a,5b,6,7,7a,8,11,11a,11b,12,13,13a,13b-octadecahydro-1H-cyclopenta[a]chrysen-9-yl)phthalic acid]",> 0.1
3,"C=C(C)[C@@H]1CC[C@]2(C(=O)NCCN3CCS(=O)(=O)CC3)CC[C@]3(C)[C@H](CC[C@@H]4[C@@]5(C)CC=C(c6ccc(C(=O)O)c(F)c6)C(C)(C)[C@@H]5CC[C@]43C)[C@@H]12 [Example 116, 4-((1R,3aS,5aR,5bR,7aR,11aS,11bR,13aR,13bR)-3a-((2-(1,1-dioxido-4-thiomorpholinyl)ethyl)carbamoyl)-1-isopropenyl-5a,5b,8,8,11a-pentamethyl-2,3,3a,4,5,5a,5b,6,7,7a,8,11,11a,11b,12,13,13a,13b-octadecahydro-1H-cyclopenta[a]chrysen-9-yl)-2-fluorobenzoic acid]",< 0.1
4,"C=C(C)[C@@H]1CC[C@]2(C(=O)NCCN3CCS(=O)(=O)CC3)CC[C@]3(C)[C@H](CC[C@@H]4[C@@]5(C)CC=C(c6ccc(C(=O)O)cc6)C(C)(C)[C@@H]5CC[C@]43C)[C@@H]12 [Example 106, 4-((1R,3aS,5aR,5bR,7aR,11aS,11bR,13aR,13bR)-3a-((2-(1,1-dioxido-4-thiomorpholinyl)ethyl)carbamoyl)-1-isopropenyl-5a,5b,8,8,11a-pentamethyl-2,3,3a,4,5,5a,5b,6,7,7a,8,11,11a,11b,12,13,13a,13b-octadecahydro-1H-cyclopenta[a]chrysen-9-yl)benzoic acid]",< 0.1
5,"C=C(C)[C@@H]1CC[C@]2(C(=O)NCCCNC(C)=O)CC[C@]3(C)[C@H](CC[C@@H]4[C@@]5(C)CC=C(c6ccc(C(=O)O)cc6)C(C)(C)[C@@H]5CC[C@]43C)[C@@H]12 [Example 53, 4-((1R,3aS,5aR,5bR,7aR,11aS,11bR,13aR,13bR)-3a-(3-acetamidopropylcarbamoyl)-5a,5b,8,8,11a-pentamethyl-1-(prop-1-en-2-yl)-2,3,3a,4,5,5a,5b,6,7,7a,8,11,11a,11b,12,13,13a,13b-octadecahydro-1H-cyclopenta[a]chrysen-9-yl)benzoic acid]",< 0.1
6,"C=C(C)[C@@H]1CC[C@]2(C(=O)N[C@@H](Cc3ccccc3)C(=O)O)CC[C@]3(C)[C@H](CC[C@@H]4[C@@]5(C)CC=C(c6ccc(C(=O)O)cc6)C(C)(C)[C@@H]5CC[C@]43C)[C@@H]12 [Example 58, 4-((1R,3aS,5aR,5bR,7aR,11aS,11bR,13aR,13bR)-3a-((S)-1-carboxy-2-phenylethylcarbamoyl)-5a,5b,8,8,11a-pentamethyl-1-(prop-1-en-2-yl)-2,3,3a,4,5,5a,5b,6,7,7a,8,11,11a,11b,12,13,13a,13b-octadecahydro-1H-cyclopenta[a]chrysen-9-yl)benzoic acid]",< 0.1
7,"C=C(C)[C@@H]1CC[C@]2(C(=O)N3CCN(C)CC3)CC[C@]3(C)[C@H](CC[C@@H]4[C@@]5(C)CC=C(c6ccc(C(=O)O)cc6)C(C)(C)[C@@H]5CC[C@]43C)[C@@H]12 [Example 10, 4-((1R,3aS,5aR,5bR,7aR,11aS,11bR,13aR,13bR)-5a,5b,8,8,11a-pentamethyl-3a-(4-methylpiperazine-1-carbonyl)-1-(prop-1-en-2-yl)-2,3,3a,4,5,5a,5b,6,7,7a,8,11,11a,11b,12,13,13a,13b-octadecahydro-1H-cyclopenta[a]chrysen-9-yl)benzoic acid]",< 0.1
8,"C=C(C)[C@@H]1CC[C@]2(C(=O)NCCN(C)CC(=O)O)CC[C@]3(C)[C@H](CC[C@@H]4[C@@]5(C)CC=C(c6ccc(C(=O)O)cc6)C(C)(C)[C@@H]5CC[C@]43C)[C@@H]12 [Example 80, 4-((1R,3aS,5aR,5bR,7aR,11aS,11bR,13aR,13bR)-3a-(2-((carboxymethyl)(methyl)amino)ethylcarbamoyl)-5a,5b,8,8,11a-pentamethyl-1-(prop-1-en-2-yl)-2,3,3a,4,5,5a,5b,6,7,7a,8,11,11a,11b,12,13, 13a,13b-octadecahydro-1H-cyclopenta[a]chrysen-9-yl)benzoic acid]",< 0.1
9,"C=C(C)[C@@H]1CC[C@]2(C(=O)NCCNCCO)CC[C@]3(C)[C@H](CC[C@@H]4[C@@]5(C)CC=C(c6ccc(C(=O)O)cc6)C(C)(C)[C@@H]5CC[C@]43C)[C@@H]12 [Example 74, 4-((1R,3aS,5aR,5bR,7aR,11aS,11bR,13aR,13bR)-3a-(2-(2-hydroxyethylamino)ethylcarbamoyl)-5a,5b,8,8,11a-pentamethyl-1-(prop-1-en-2-yl)-2,3,3a,4,5,5a,5b,6,7,7a,8,11,11a,11b,12,13,13a,13b-octadecahydro-1H-cyclopenta[a]chrysen-9-yl)benzoic acid]",< 0.1
10,"C=C(C)[C@@H]1CC[C@]2(C(=O)NCC(C)(C)N)CC[C@]3(C)[C@H](CC[C@@H]4[C@@]5(C)CC=C(c6ccc(C(=O)O)cc6)C(C)(C)[C@@H]5CC[C@]43C)[C@@H]12 [Example 38, 4-((1R,3aS,5aR,5bR,7aR,11aS,11bR,13aR,13bR)-3a-(2-amino-2-methylpropylcarbamoyl)-5a,5b,8,8,11a-pentamethyl-1-(prop-1-en-2-yl)-2,3,3a,4,5,5a,5b,6,7,7a,8,11,11a,11b,12,13,13a,13b-octadecahydro-1H-cyclopenta[a]chrysen-9-yl)benzoic acid]",< 0.1
11,"C=C(C)[C@@H]1CC[C@]2(C(=O)NCCO)CC[C@]3(C)[C@H](CC[C@@H]4[C@@]5(C)CC=C(c6ccc(C(=O)O)cc6)C(C)(C)[C@@H]5CC[C@]43C)[C@@H]12 [Example 17, 4-((1R,3aS,5aR,5bR,7aR,11aS,11bR,13aR,13bR)-3a-(2-hydroxyethylcarbamoyl)-5a,5b,8,8,11a-pentamethyl-1-(prop-1-en-2-yl)-2,3,3a,4,5,5a,5b,6,7,7a,8,11,11a,11b,12,13,13a,13b-octadecahydro-1H-cyclopenta[a]chrysen-9-yl)benzoic acid]",< 0.1
12,"C=C(C)[C@@H]1CC[C@]2(C(=O)N(C)Cc3ccccc3)CC[C@]3(C)[C@H](CC[C@@H]4[C@@]5(C)CC=C(c6ccc(C(=O)O)cc6)C(C)(C)[C@@H]5CC[C@]43C)[C@@H]12 [Example 18, 4-((1R,3aS,5aR,5bR,7aR,11aS,11bR,13aR,13bR)-3a-(benzyl(methyl)carbamoyl)-5a,5b,8,8,11a-pentamethyl-1-(prop-1-en-2-yl)-2,3,3a,4,5,5a,5b,6,7,7a,8,11,11a,11b,12,13,13a,13b-octadecahydro-1H-cyclopenta[a]chrysen-9-yl)benzoic acid]",> 0.1
